Measured values reported in PMC11494503, “Next Generation SICLOPPS Screening for the Identification of Inhibitors of the HIF-1α/HIF-1β Protein–Protein Interaction” (ACS Chemical Biology, 2024).

System: HIF-1
Experiment: HIF-1-dependent luciferase reporter assay in U2OS-HRE-Luc cells in hypoxia
Type: cell-based, human
Settings: 16 h in hypoxia; for reduction in luminescence: 40 μM
Method: HIF Luciferase Reporter Assays
Assays were conducted in previously reported U2OS-HRE-Luciferase (U2OS-HRE-Luc) cells.2 Upon reaching 80-90% confluency, U2OS-HRE-Luc were plated (10 000 cells/well) in 96-well plates (Perkin-Elmer) and incubated in a cell incubator for 16 h. The cells were treated with cyclic peptide at […]
manufacturer’s protocol. […] The

| Molecule | luciferase signal reduction (20 μM) [%] | reduction in luminescence [%] | IC50 (multiple doses, read-out: IC50 of reduction in the hypoxia-mediated luciferase signal) [µM] |
| --- | --- | --- | --- |
| CC(C)C[C@@H]1NC(=O)[C@H](CS)NC(=O)[C@H](Cc2ccccc2)NC(=O)[C@H](CC(C)C)NC(=O)[C@H](CC(C)C)NC(=O)[C@H](CSSC[C@H](N)C(=O)NCC(=O)N[C@@H](CCCNC(=N)N)C(=O)N[C@@H](CCCCN)C(=O)N[C@@H](CCCCN)C(=O)N[C@@H](CCCNC(=N)N)C(=O)N[C@@H](CCCNC(=N)N)C(=O)N[C@@H](CCC(N)=O)C(=O)N[C@@H](CCCNC(=N)N)C(=O)N[C@@H](CCCNC(=N)N)C(=O)N[C@@H](CCCNC(=N)N)C(=O)N2CCC[C@H]2C(=O)N2CCC[C@H]2C(=O)N[C@@H](CCC(N)=O)C(=O)O)NC1=O [Tat-cyclo-CLLFCL] | 70 | 84 | 13 ± 4 |
| Tat-cyclo-CLLFVY [reference compound] |  | 28 |  |
